Consider eight compounds from patent US20230390234A1, “COMPOSITION INHIBITING MUSCLE LOSS OR PROMOTING MUSCLE FORMATION THROUGH SKIN-DERIVED EXOSOMES” (EX HEALTHCARE INC., priority 2021, published 2023).

In one series the test system is miRNA-26a. The series is described as follows: Level of miRNA-26a in exosomes isolated from treated fibroblasts (real-time qPCR). Format: cell-based, human. The method, then: After treating the subcultured passage 27 FB with betaine for 48 hours, the medium was collected and centrifuged at 3000×g for 30 minutes. After centrifugation, only the supernatant was recovered and transferred to Ultra-15 Centrifugal Filter Units (Amicon, MERCK, C7715) and centrifuged at 4000×g for 40 minutes. Only the supernatant was recovered, Total Exosome Isolation Reagent (Invitrogen, Cat No #4478539) was added at ½ the volume of the supernatant, and the mixture was allowed to react at 4° C. overnight. The next day, after centrifugation at 10000×g for 1 hour, the supernatant was removed by suction, and then a final exosome pellet was re-suspended in PBS. The exosomes obtained in the present example are hereinafter referred to as “fibroblast-derived exosomes”.
2×10^6 FB cells were inoculated onto a 75 T flask, cultured for 24 hours, and then treated with betaine (0.1, 1 and 10 mM). After the cells were additionally cultured for 48 hours, exosomes were isolated by the method of Example 1-2, and microRNA (hereinafter described as miRNA) was extracted from the exosomes isolated from the culture medium using an RNeasy plus mini kit (Qiagen, Germany) according to the manufacturer's protocol.
Real-time qPCR was performed with a tagman probe targeting mature RNA. The relative expression level of the intracellular target miRNA was normalized with the expression level of RNU48, which is used as a housekeeping gene during miRNA quantification, and then shown as a relative %. The relative expression of miRNA-26a in exosomes was normalized with the expression of […], which is used as a housekeeping gene during quantification of miRNA in fibroblast exosomes, and then shown as a relative %. For all real-time qPCR analyses, an Applied Biosystems 7500 (Applied Biosystems) apparatus was used.
The FB was treated with the material shown in the following Table 1 to isolate exosomes in the same manner as in Example 1-1, and the level of miRNA-26a was confirmed in the exosomes by the method in Example 1-4.
Thereafter, after fibroblasts (FB) were treated with the Camellia japonica flower extract for 48 hours, exosomes were isolated by the method in Example 1-2. Furthermore, the level of miR-26a was confirmed in exosomes isolated from the culture medium by the method in Example 1-4. As a result of the confirmation, it could be confirmed that the level of miRNA-26a was increased in the exosomes isolated from the FB treated with the Camellia flower extract at a concentration of 50 ppm compared to the control which was an untreated group (FIG. 9).
On the technique in general: In qPCR the cycle at which signal appears reflects the starting amount.

The subject of series [1] is MyoD. The series is described as follows: Myogenesis marker expression in differentiated C2C12 cells, qPCR. The format is cell-based, mouse. The conditions noted are these: differentiated C2C12, 48 hours; betaine 0.1 mM or exosomes about 20 μg/ml, FIG. 5. On the procedure:
(§1) C2C12 cells were inoculated onto a 6-well plate at a concentration of 1.5×10^5 cells/well and cultured for 24 hours. Thereafter, the medium was exchanged with a medium supplemented with 2% horse serum, and the cells were further cultured for 72 hours to promote the differentiation of C2C12 cells. After the differentiation was completed, the cells were treated with betaine at 0.1 mM or fibroblast-derived exosomes (about 20 μg/ml) obtained in Example 1-2 and further cultured for 48 hours. Total RNA was extracted with an RNeasy plus mini kit and cDNA was synthesized with SuperScript™ III (Invitrogen, USA). Thereafter, qPCR was performed with a target gene taqman probe, and then analysis was performed.

Series [2] concerns MyoD. The series is described as follows: Myogenesis marker protein level in differentiated C2C12 cells, western blotting. The conditions noted are these: differentiated C2C12, 48 hours; betaine 0.1 or 0.5 mM or exosomes, FIG. 7. Format: cell-based, mouse. The method, then: (§2) C2C12 cells were inoculated onto a 6-well plate at a concentration of 5×10^5 cells/well and cultured for 24 hours. Thereafter, the medium was exchanged with a medium supplemented with 2% horse serum, and the cells were further cultured for 72 hours to promote the differentiation of C2C12 cells. After the differentiation was completed, the cells were treated with betaine (0.1 and 0.5 mM) or fibroblast-derived exosomes and further cultured for 48 hours. Thereafter, cells were lysed by adding a lysis buffer (1% NP40, 0.05 M Tris-HCl, pH 7.5, 0.15 M NaCl and 0.01 MgCl2) including a protease inhibitor to the C2C12 cells, and the concentration of proteins was measured by a […] (BCA) method. The quantified protein was separated with SDS-PAGE and transferred to a PVDF membrane, and the protein expression level of each muscle loss marker was confirmed with an antibody.
For orientation: A western blot detects proteins with antibodies after separation by electrophoresis.

Series [3] concerns myostatin. The series is described as follows: Muscle loss marker expression in differentiated C2C12 cells, qPCR. Format: cell-based, mouse. The conditions noted are these: differentiated C2C12, 48 hours; betaine 0.1 mM or exosomes about 20 μg/ml, FIG. 4C. The method, then:
as §1
(§3) C2C12 cells were inoculated onto a 6-well plate at a concentration of 1.5×10^5 cells/well and cultured for 24 hours. Thereafter, the medium was exchanged with a medium supplemented with 2% horse serum, and the cells were further cultured for 72 hours to promote the differentiation of C2C12 cells. After the differentiation was completed, the cells were treated with the Camellia japonica flower extract at 50 ppm or the exosomes (about 20 μg/ml) obtained in Example 4-1 and further cultured for 48 hours. Thereafter, the change in expression of the target gene was confirmed by qPCR by the method in Example 2-1.

Series [4] has as its system MURF1. The description is as above. The following applies: differentiated C2C12, 48 hours; betaine 0.1 mM or exosomes about 20 μg/ml, FIG. 4A. The format is cell-based, mouse. On the procedure: as §1, §3
The test system of another series is C2C12 cells. The series is described as follows: Cytotoxicity of betaine, CCK-8 cell viability in myofibroblasts. Format: cell-based, mouse. The conditions noted are these: betaine at different concentrations, 24 hours, CCK-8, FIG. 1B. On the procedure:
(§4) As human skin dermal cells, normal human dermal fibroblasts (NHDF, fibroblasts) isolated from adult samples were purchased from LONZA (Cat. CC-2511). As […], C2C12 cells, which are myoblasts isolated and cultured from C3H mice, were purchased from ATCC (CRL-1772).
(§5) Subcultured passage 27 human fibroblast HS68 (hereinafter referred to as FB) or C2C12 was inoculated onto a 96-well plate at a concentration of 1×10^4 cells/well and cultured in an incubator at 5% CO2 and 37° C. for 24 hours. After culturing, cells were treated with betaine at different concentrations and additionally cultured for 24 hours, and an untreated group was used as a control. After the cells were washed with PBS, the cells were additionally cultured with CCK-8 (DONGJIN, CK04-11) for 2 hours, and absorbance was measured at 450 nm using a microplate reader. From the measured results, relative cell viability according to the betaine treatment concentration was calculated by setting the value of the control to 100.

Series [5] has as its system atrogin-1. Put plainly: Muscle loss marker protein level in differentiated C2C12 cells, western blotting. Format: cell-based, mouse. The following applies: differentiated C2C12, 48 hours; betaine 0.1 or 0.5 mM or exosomes, FIG. 6. On the procedure:
as §2

For series [6], the system named is myostatin. Described as above. The format is cell-based, mouse. The conditions noted are these: differentiated C2C12, 48 hours; betaine 0.1 or 0.5 mM or exosomes, FIG. 6. On the procedure:
as §2

In series [7] the test system is MURF1. The description is as above. The format is cell-based, mouse. The following applies: differentiated C2C12, 48 hours; betaine 0.1 or 0.5 mM or exosomes, FIG. 6. The method, then:
as §2

For series [8], the system named is human fibroblast HS68 (FB). The series is described as follows: Cytotoxicity of betaine, CCK-8 cell viability in fibroblasts. Format: cell-based. The conditions noted are these: betaine at different concentrations, 24 hours, CCK-8, FIG. 1A. The method, then: as §4, §5
Series [9] has as its system atrogin-1. Put plainly: Muscle loss marker expression in differentiated C2C12 cells, qPCR. Format: cell-based, mouse. The conditions noted are these: differentiated C2C12, 48 hours; betaine 0.1 mM or exosomes about 20 μg/ml, FIG. 4B. The method, then:
as §1

As to `COc1ccc(-c2cc(=O)c3c(OC)c(OC)c(OC)c(OC)c3o2)cc1OC` [Nobiletin], in the series on miRNA-26a (FB treated with 30 uM), the “miRNA-26a level in exosomes, fold change (vs. control)” value is reported as 1.447 fold.
Take Kojyl carboxy dipeptide-23: the “miRNA-26a level in exosomes, fold change (vs. control)” value in the series on miRNA-26a (FB treated with 10 ppm) worked out at 1.483 fold.
For `O=c1c(O)c(-c2cc(O)c(O)c(O)c2)oc2cc(O)cc(O)c12` [Myricetin], the “miRNA-26a level in exosomes, fold change (vs. control)” value in the series on miRNA-26a (FB treated with 25 uM) is recorded as 1.599 fold.
As for `O=C1C[C@@H](c2ccc(O)cc2)Oc2cc(O)cc(O)c21` [Naringenin], the “miRNA-26a level in exosomes, fold change (vs. control)” value in the series on miRNA-26a (FB treated with 10 uM) came to 1.854 fold.
Consider L-carnosine, for which the “miRNA-26a level in exosomes, fold change (vs. control)” value in the series on miRNA-26a (FB treated with 5 ppm (0.0005%)) was 1.537 fold.
In the case of Copper Tripeptide, the “miRNA-26a level in exosomes, fold change (vs. control)” value in the series with miRNA-26a (FB treated with 10 ppm) is reported as 1.743 fold.
On to Camelliaside A, for which, in the series on miRNA-26a (FB treated with 1 ppm), the “miRNA-26a level in exosomes, fold change (vs. control)” value amounted to 1.956 fold.
For `C[N+](C)(C)CC(=O)O` [Betaine], in the series on MyoD [1], the “expression of MyoD (qPCR) vs. control” value is given as “increased compared to the control, but was not at a significant level”. Besides, the “protein expression of MyoD (western blotting)” value with MyoD [2] is “unchanged”. Moreover, in the series on myostatin [3], the “expression of myostatin (qPCR) vs. control” value is reported as “almost the same level”. Moreover, in the series on MURF1 [4], the “expression of MURF1 (qPCR) vs. control” value is “slightly increased”. For the same compound, in the series with C2C12 cells, the “cell viability of C2C12” value was “no change”. In the series with atrogin-1 [5], the “protein expression of atrogin-1 (western blotting)” value was “no change”. For the same compound, in the series on myostatin [6], the “protein expression of myostatin (western blotting)” value is on record as “no change”. Further, the “protein expression of MURF1 (western blotting)” value with MURF1 [7] is “no change”. For the same compound, the “cell viability of FB” value in series [8] was “no change”. In addition, the “expression of atrogin-1 (qPCR) vs. control” value in the series on atrogin-1 [9] is given as “slightly increased”. Also, the “miRNA-26a level in exosomes, fold change (vs. control)” value with miRNA-26a (FB treated with 1 mM) was 1.821 fold. In the series with miRNA-26a (FB treated with betaine 0.1, 1 and 10 mM, 48 hours, FIG. 3), the “level of miRNA-26a in exosomes vs. untreated control” value was “increased”.
